Assay results from patent US20220175717A1, “PHENPROCOUMON TTS” (LTS LOHMANN THERAPIE-SYSTEME AG, priority 2019, published 2022).

What was measured:
[1] = Saturation concentration Cs of phenprocoumon in polymer matrices (sandwich method of Liu); type: physicochemical; conditions: for Cs of phenprocoumon: 7 days at room temperature
Method: The saturation concentration Cs of phenprocoumon was determined in various polymer matrices according to the method of Liu (Liu, P., Gargiulo, P., Wong, J., and Novartis (1997). A Novel Method for Measuring Solubility of a Drug in an Adhesive. Pharmaceutical Research 14, p. 317). In this method, known among experts as the “sandwich” method, the saturation concentration is determined as follows: A laminate is built up with the following sequence of layers: protective film—donor layer with active substance (dissolved and undissolved)—active-substance-permeable membrane—acceptor layer without active substance—protective film. The two protective films consist of identical material; the matrix material of the donor layer and acceptor layer is also identical. The donor layer is prepared by dissolving the active substance in a solution of the polymer in organic solvent. In this process, the concentration of the active substance must be chosen to be high enough that an undissolved residue is visible in the polymer matrix, so that the saturation concentration Cs in the donor layer is safely exceeded. This solution is spread on the protective film and the process solvent is evaporated. Then, the adhesive surface of the donor layer is covered with the membrane. The membrane used is a dialysis tube made of regenerated cellulose (ZelluTrans, from Roth, 46 mm flat width), which has been cut open lengthwise. The acceptor layer is produced analogously to the donor layer without active substance and is applied to the other side of the membrane. The laminates produced in this way are then stored at room temperature for 7 days, during which diffusion of the active substance through the membrane into the acceptor layer occurs. Subsequently, the active substance concentration in the donor layer is determined. For this purpose, aliquots of approx. 1 cm^2 are punched using a punching tool with a standardised surface area. The membrane is then removed, the punched pieces without membrane are weighed, and their weight is documented (m1). Then, the punched pieces are placed in organic solvent to dissolve the matrices. The backing layers are removed, washed and dried and their weight (m2) is determined. From both measured values, the weight of the polymer portion of the […] m3 is obtained as follows: m3=m1−m2 Subsequently, the concentration of phenprocoumon is determined in the solution using HPLC, and its concentration in the donor layer is calculated. The saturation concentrations of phenprocoumon in different polymer matrices determined according to this experimental approach are summarised in Table 1: […]

[2] = Solubility of phenprocoumon in process solvents; type: physicochemical
Method: Since toluene polysiloxane solution is not commercially available, BIO PSA 4201 from Dow Chemicals (polysiloxane in n-heptane) was used as starting material. The solvent was evaporated off and the rubbery polymeric residue was dissolved with enough toluene to obtain a solution with approx. 75% solids.

[3] = once absorbed by the body; cited from earlier work

Cs of phenprocoumon ([1]; in acrylate copolymer of 2-ethylhexyl acrylate, vinyl acetate and 2-hydroxyl ethyl acrylate, ethyl acetate): 6.11%
Cs of phenprocoumon ([1]; in acrylic copolymer of 2-ethylhexyl acrylate, butyl acrylate, vinyl acetate, acrylic acid, ethyl acetate): 7.26%
saturation concentration Cs of phenprocoumon ([1]; in neutral polymers (text summary of Table 1)): > 5%
Cs of phenprocoumon ([1]; in polyisobutylene, polymer dissolved in toluene): 2.8%
Cs of phenprocoumon ([1]; in polysiloxane, ethyl acetate): 0.3%
Cs of phenprocoumon ([1]; in styrene-isoprene-styrene block copolymer, polymer dissolved in toluene): 3.9%
solubility ([2]; in aromatic hydrocarbons): sufficiently soluble
solubility ([2]; in n-heptane): not in n-heptane
Structure (SMILES): CCC(c1ccccc1)c1c(O)c2ccccc2oc1=O (stereo not drawn) [phenprocoumon, Phenprocoumon]
biological half-life [3]: up to 160 hours
